We go through five molecules from US20190369119A1, “Protein Biomarkers for Identifying and Treating Aging Skin and Skin Conditions” (priority 2018, published 2019).

Common to all, as to type: cell-based
Assay [1] deals with HSP70 protein level. Briefly: HSP70 ELISA (Enzo kit), normal human dermal fibroblasts, 24 h treatment. The settings on record: 0.01%, HDF cells, FIG. 4. On the procedure:
Normal human dermal fibroblasts (Cascade Biologics) were seeded into four wells of a six well plate (5.0×10^5 cells/well) and cultured overnight. The following day, cells were replenished with fresh media and test compositions were added. The test compositions including their control for each formulation: […]
Following 24 hours of treatment, the cells were lysed and the HSP70 protein level was measured using an ELISA kit (available from Enzo Life Sciences). Cells were lysed using the lysis buffer provided with the kit. The amount of proteins for each sample was calculated using the standard curve.
The assay was performed in triplicate for each sample and the values represent mean±S.D. (standard deviation).

The test system of assay [2] is HSP70 protein level. In words: HSP70 ELISA (Abcam kit), full thickness human 3D skin cultures (MatTek), 24 h treatment. Particulars: 1% by weight, skin 3-D tissues, FIG. 6. Here is the method:
A series of experiments was conducted to assess the effects of various treatments with HSP70 inducers on full thickness 3D skin cultures. Human 3D skin (MatTek, Mass.) were cultured following the manufacturer's instructions overnight. The following day, tissues were replenished with fresh media and then compositions comprising various potential actives were added. Following 24 hours of treatment, the tissues were lysed and the HSP70 protein level was measured using an ELISA kit (available from Abcam). The amount of the proteins was calculated according to the standard curve. For these measurements, the test materials were formulated in control at 1% by weight of the composition or at 0.04% by weight of the composition (Arnica montana, rosemary, black cohosh, turmeric, chamomile, aloe, horse chestnut, linseed, grapeseed, argan oil, gromwell, marjoram, sage, lauric acid, butyric acid) or they were formulated in control at 0.04% by weight of the composition (licorice, tetrahydrocurcumin (THC), olive leaf, milk thistle, glutamate).
The results are shown in FIG. 6 as the measured amount of HSP70 proteins/μg total protein for each sample. Samples labeled with “*” indicate a p value compared to the control of less than 0.05.
(In general: An ELISA detects its analyte on a solid surface through an enzyme-linked reagent.)

The test system of assay [3] is HSP70 protein level. Briefly: HSP70 ELISA (Abcam kit), normal human dermal fibroblasts, 24 h treatment. The settings on record: for stimulation of HSP70 protein level as compared to control: HDF cells, FIG. 5; for HSP70 induction value (Control = 1): normal human dermal fibroblasts, FIG. 3. Here is the method: Normal human dermal fibroblasts were cultured in 6-well tissue culture treated plates. Cells were treated with test material (agent/compound) at the concentrations indicated, or with respective vehicle control diluted in growth medium, for 24 hours in a humidified 37° C. incubator with 5% CO2. After incubation, growth medium from each plate was removed and cells were lysed. HSP70 protein level in the cells was determined by a commercially available ELISA kit (Abcam, Cambridge, Mass.). In FIG. 3, Control induction value=1; shikonin (1 μM concentration) induction value=1.7; Arnica Montana (0.003% concentration) induction value=1.86; resveratrol (0.003% concentration) induction value=1.47; and G. T. polyphenol (0.003% concentration) induction value=1.24.
Similar experimentation on other HSP70 inducers was performed using an HSP70 ELISA kit (available from Abcam; cat. # ab133060). Briefly, normal human dermal fibroblasts (Cascade Biologics) were seeded into four wells of a six well plate (5.0×10^5 cells/well) and cultured overnight. The following day, cells were replenished with fresh media and test compositions were added. The test compositions including their control for each formulation: […]
The active ingredient was formulated in the ethanol:water control. Following 24 hours of treatment, the cells were lysed and the HSP70 protein level was measured using an ELISA kit (available from Abcam). Cells were lysed using the lysis buffer provided with the kit. The amount of proteins for each sample was calculated using the standard curve.
The assay was performed in triplicate for each sample and the values represent mean±S.D. (standard deviation). Samples labeled with “*” indicate a p value compared to the control of less than 0.05.

In the case of `C=C(C)[C@@H]1CCC(C)=C[C@H]1c1c(O)cc(CCCCC)cc1O` [CBD, cannabidiol], the “stimulation of HSP70 protein level compared to its control” value in assay [1] is listed as 189%.
As for `CCCC(=O)O` [butyric acid], the “stimulation of HSP70 protein levels as compared to control” value in assay [2] is 248%.
`Oc1ccc(/C=C/c2cc(O)cc(O)c2)cc1` [resveratrol, trans-3,5,4′-trihydroxystilbene]: in assay [3] (0.003%), the “stimulation of HSP70 protein level as compared to control” value turned out to be 147% and the “HSP70 induction value (Control = 1)” value worked out at 1.47.
With `CC(C)=CC[C@@H](O)C1=CC(=O)c2c(O)ccc(O)c2C1=O` [shikonin], in assay [3] (1 μM), the “stimulation of HSP70 protein level as compared to control” value is recorded as 170% and the “HSP70 induction value (Control = 1)” value stood at 1.7.
For “epigallocatechin-3-gallate [G. T. polyphenol]”, in assay [3] (0.003%), the “stimulation of HSP70 protein level as compared to control” value is 124% and the “HSP70 induction value (Control = 1)” value was 1.24.
